In patent US9731027B2, “Somatostatin-dopamine chimeric analogs” (Ipsen Pharma S.A.S., priority 2012, dated 2017):
Like-named read-outs stand apart in the source and are kept apart here. Bridge positions count the residues as written; N and C are the ends. Square brackets hold non-standard residues; d marks the D form. Peptide text beside a SMILES is read from it. * marks the point of attachment. X2 = CN1C[C@H](CSCC(=O)*)C[C@@H]2c3cccc4[nH]cc(c34)C[C@H]21

Experiments:
[1] = system: pituitary tumor cells of acromegalic patients presenting with macroadenoma; assay: Human pituitary adenoma cell growth hormone release assay; format: cell-based; conditions: 18 hours incubation, AlphaLISA GH immunoassay; FIG. 5
Procedure: FIG. 1 is a graph showing the Growth hormone suppressing activity of Compound 4 (see Table I hereinbelow for its chemical name and its corresponding structural representation) on pituitary tumor cells of acromegalic patients presenting with macroadenoma. Various concentrations of Compound 4 were added to the medium and the cells were incubated for 18 hours before measurement of Growth hormone levels in the medium using the AlphaLISA Growth Hormone Immunoassay Research kit (PerkinElmer).
Various concentrations of Compounds 4 and 5 were added to the medium and the cells were incubated for 18 hours before measurement of Growth hormone levels in the medium using the AlphaLISA Growth Hormone Immunoassay Research kit (PerkinElmer).
Acromegalic patients presenting with macroadenoma underwent transsphenoidal surgery and a portion of each tumor obtained at surgery was dissociated by enzymatic and mechanical methods. The cells were cultured in DMEM medium supplemented with 10% FBS and antibiotics for 3 days. The cells were then plated in multi-well tissue culture dishes coated with extracellular matrix from bovine endothelial corneal cells at a density of 3-5×10^4 cells/well in DMEM supplemented with 10% FBS and antibiotics. After 2-3 days of culture, the medium was changed to DMEM supplemented with 1% FBS, antibiotics and 1% ITS (insulin, transferrin and selenium).

hSSTR2 [2] = biological target: T1, hSSTR2 (Homo sapiens, UniProt P30874); assay: Intracellular calcium mobilization assay (FLIPR Calcium 4), hSSTR2; format: cell-based
T1 construct: host or cells: 'Cells expressing hSSTR2'
T1 sequence (P30874 whole entry): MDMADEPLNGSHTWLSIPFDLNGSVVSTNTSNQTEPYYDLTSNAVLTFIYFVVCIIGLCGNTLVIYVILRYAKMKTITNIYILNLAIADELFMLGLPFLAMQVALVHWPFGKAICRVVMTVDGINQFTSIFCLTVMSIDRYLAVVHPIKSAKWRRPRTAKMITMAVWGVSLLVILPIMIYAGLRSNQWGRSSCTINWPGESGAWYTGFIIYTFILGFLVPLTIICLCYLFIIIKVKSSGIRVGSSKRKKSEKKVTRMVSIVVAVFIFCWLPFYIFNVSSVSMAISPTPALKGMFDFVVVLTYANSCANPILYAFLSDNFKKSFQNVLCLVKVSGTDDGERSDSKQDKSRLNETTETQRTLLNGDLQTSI
Procedure: The ability of select compounds according to the present invention to activate hSSTR2 and hDRD2 was determined by the intracellular calcium mobilization assay using FLIPR Calcium 4 assay kit (Molecular Devices).
Cells expressing hSSTR2 or hDRD2 were plated in 384-well microplates in tissue culture media and incubated for 16-24 hours at 37° C. in a humidified atmosphere with 5% CO2. Medium was replaced by loading buffer containing Hank's buffered saline, 20 mM HEPES, 2.5 mM probenecid and Calcium 4 dye, and the plates were incubated at 37° C. for 60 minutes.

hSSTR2 [3] = biological target: T1, hSSTR2; assay: Somatostatin receptor radioligand binding assay, hSSTR2
Procedure: The affinities of a test compound for the human somatostatin receptors were determined by radioligand binding assays in CHO-K1 cells stably transfected with each of the human somatostatin receptor subtypes, hSSTR1-5. The cDNA coding sequences of hSSTR1 (GenBank accession No. NM_001049.1), hSSTR2 (GenBank accession No. XM_012697.1), hSSTR3 (GenBank accession No. XM_009963.1), hSSTR4 (GenBank accession No. NM_001052.1), and hSSTR5 (GenBank accession No. XM_012565.1) were subcloned into the mammalian expression vector pcDNA3.1 (Life Technologies). Clonal cell lines stably expressing each of the somatostatin receptors were obtained by transfection into CHO-K1 cells (ATCC) and subsequently selected with culture media containing 0.8 mg/mL of G418 (Life Technologies).
Membranes for in vitro receptor binding assays were obtained by the following procedures. […] The supernatant containing the plasma membranes was centrifuged at 100,000×g for 30 minutes and the pellet was resuspended in buffer containing 20 mM glycine-glycine, 1 mM MgCl2, 250 mM sucrose, pH 7.2, for storage at −80° C. […]

Structure (SMILES): C[C@@H](O)[C@@H]1NC(=O)[C@H](CCCCN)NC(=O)[C@@H](Cc2c[nH]c3ccccc23)NC(=O)[C@H](Cc2ccncc2)NC(=O)[C@H](Cc2ccccc2)NC(=O)[C@H](CCCNC(=N)N)NC(=O)[C@H](NC[C@H](Cc2ccc(O)cc2)NC(=O)CSC[C@@H]2C[C@@H]3c4cccc5[nH]cc(c45)C[C@H]3N(C)C2)CCCCNC(=O)[C@H](Cc2ccccc2)NC1=O [Compound 4, Dop1-Tyr-psi(CH2NH)-cyclo(DLys-Arg-Phe-4Pal-DTrp-Lys-Thr-Phe)]
- Growth hormone suppressing activity compared to the parent somatostatin analogs [1]: enhanced Growth hormone suppressing activity

Structure (SMILES): C[C@@H](O)[C@@H]1NC(=O)[C@H](CCCCN)NC(=O)[C@@H](Cc2c[nH]c3ccccc23)NC(=O)[C@H](Cc2ccccc2)NC(=O)[C@H](Cc2ccccc2)NC(=O)[C@H](CCCNC(=N)N)NC(=O)[C@H](NC[C@H](Cc2ccc(O)cc2)NC(=O)CSC[C@@H]2C[C@@H]3c4cccc5[nH]cc(c45)C[C@H]3N(C)C2)CCCCNC(=O)[C@H](Cc2ccc(F)cc2)NC1=O [Compound 5, Dop1-Tyr-psi(CH2NH)-cyclo(DLys-Arg-Phe-Phe-DTrp-Lys-Thr-4FPhe)]
- Growth hormone suppressing activity compared to the parent somatostatin analogs [1]: enhanced Growth hormone suppressing activity

Structure (SMILES): C[C@@H](O)[C@@H]1NC(=O)[C@H](CCCCN)NC(=O)[C@@H](Cc2c[nH]c3ccccc23)NC(=O)[C@H](Cc2ccccc2)NC(=O)[C@H](Cc2ccccc2)NC(=O)[C@H](CCCNC(=N)N)NC(=O)[C@@H](NC[C@H](Cc2ccc(O)cc2)NC(=O)CSC[C@@H]2C[C@@H]3c4cccc5[nH]cc(c45)C[C@H]3N(C)C2)CCCNC(=O)[C@H](Cc2ccccc2)NC1=O [Compound 43, Dop1-Tyr-psi(CH2NH)-cyclo(Orn-Arg-Phe-Phe-DTrp-Lys-Thr-Phe)]
- EC50 (hSSTR2 [2]): 31.6 ± 4.3 nM
- Ki (hSSTR2 [3]): 1.07 ± 0.39 nM

Structure (SMILES): C[C@@H](O)[C@@H]1NC(=O)[C@H](CCCCN)NC(=O)[C@@H](Cc2c[nH]c3ccccc23)NC(=O)[C@H](Cc2ccccc2)NC(=O)[C@H](Cc2ccccc2)NC(=O)[C@H](CCCNC(=N)N)NC(=O)[C@H](NC(=O)CSC[C@@H]2C[C@@H]3c4cccc5[nH]cc(c45)C[C@H]3N(C)C2)CCCCNC(=O)[C@H](Cc2ccccc2)NC1=O [Compound 44, Dop1-cyclo(DLys-Arg-Phe-Phe-DTrp-Lys-Thr-Phe)] (X2-[dK]RFF[dW]KTF; lactam 1-C)
- Emax (hSSTR2 [2]; read-out: hSSTR2 % Emax ± SEM): 97.1 ± 5.9%

Structure (SMILES): C[C@@H](O)[C@@H]1NC(=O)[C@H](CCCCN)NC(=O)[C@@H](Cc2c[nH]c3ccccc23)NC(=O)[C@H](Cc2ccc(O)cc2)NC(=O)[C@H](Cc2ccncc2)NC(=O)[C@H](CCCNC(=N)N)NC(=O)[C@H](NC[C@@H](Cc2ccc(O)cc2)NC(=O)CSC[C@@H]2C[C@@H]3c4cccc5[nH]cc(c45)C[C@H]3N(C)C2)CCCCNC(=O)[C@H](Cc2ccccc2)NC1=O [Compound 46, Dop1-DTyr-psi(CH2NH)-cyclo(DLys-Arg-4Pal-Tyr-DTrp-Lys-Thr-Phe)]
- EC50 (hSSTR2 [2]; calcium mobilization, cells expressing hSSTR2, read-out: hSSTR2 EC50 (nM) ± SEM): 60 nM
- Ki (hSSTR2 [3]; CHO-K1 membranes, [125I-Tyr]-seglitide, read-out: hSSTR2 Ki (nM) ± SEM): 0.52 ± 0.06 nM
